According to patent US9994522B2, “Amorphous form of apremilast” (MAPI PHARMA LTD., priority 2014, dated 2018):

How the values were obtained:
Format in all cases: physicochemical
[1] = Physical stability on storage, mDSC
Description: Details of mDSC methods used in the tests are mentioned below: • Method I: Amorphous samples (about 1 mg) were run a modulated DSC using Tzero aluminum pans heated from 0° C. to 200° C. at speed of 2° C./min, with modulation temperature amplitude 1.0° C. and modulation 60 s. • Method II: The two-cycle heating mDSC was run using Tzero aluminum hermetic pans with pinhole with first cycle heated from 0° C. to 160° C. at speed of 2° C./min and the second cycle from 0° C. to 260° C. at speed of 2° C./min.
(§1) About 40 mg of scaled up amorphous sample prepared by solvent-anti-solvent precipitation (addition of water to acetone) as described in Example 6 was weighed into glass vials. The vials were stored under different testing conditions (25° C. closed vial, 25° C./60% RH, 40° C. closed vial and 40° C./75% RH) 1 week, 2 weeks, 4 weeks, and 3 months. The original scaled up amorphous form was used as a control. XRPD and mDSC were checked at the end of each time point.

[2] = Physical stability on storage, appearance
Description: as §1

[3] = Physical stability on storage, XRPD pattern; conditions: for physical stability: 25° C. closed, 25° C./60% RH and 40° C. closed, three months (not 40° C./75% RH)
Description: 3.1 XRPD Method • Details of XRPD method used in the tests are mentioned below: • X-ray Generator: Cu, Kα (λ=1.54179 Å). • Tube Voltage: 40 kV; Current: 40 mA. • Scanning Scope: 4 to 40 deg; • Sample rotation speed: 15 rpm. • Scanning rate: 10 deg/min
as §1

[4] = stored 25° C. Closed, 3rd month
[5] = stored 25° C./60% RH, 3rd month
[6] = stored 40° C. Closed, 3rd month

SMILES: CCOc1cc([C@@H](CS(C)(=O)=O)N2C(=O)c3cccc(NC(C)=O)c3C2=O)ccc1OC [amorphous apremilast, N-[2-[(1S)-1-(3-ethoxy-4-methoxyphenyl)-2-(methylsulfonyl)ethyl]-2,3-dihydro-1,3-dioxo-1H-isoindol-4-yl]acetamide]
- Tg of mDSC (first glass transition temperature) ([1]; Initial): 77.7 °C
- Tg of mDSC (second glass transition temperature) ([1]; Initial): 133.5 °C
- change of first glass transition temperature (77.7° C.) on storage ([1]; all testing conditions, up to end of the third month): did not change significantly
- change of second glass transition temperature (133.6° C.) on storage ([1]; different testing conditions, first week and second week): changed irregularly and even disappeared
- heat of fusion peak related to crystalline conversion ([1]; stored 25° C. (closed), 40° C. (closed) and 25° C./60% RH for three months): No heat of fusion peak related to crystalline conversion
- Tg of mDSC (first glass transition temperature) ([1]; stored 25° C. Closed, 1st week): 77.7 °C
- Tg of mDSC (first glass transition temperature) ([1]; stored 25° C. Closed, 2nd week): 78.5 °C
- Tg of mDSC (second glass transition temperature) ([1]; stored 25° C. Closed, 2nd week): 181.3 °C
- Tg of mDSC (first glass transition temperature) [1, 4]: 79.0 °C
- Tg of mDSC (first glass transition temperature) ([1]; stored 25° C. Closed, 4th week): 78.2 °C
- Tg of mDSC (first glass transition temperature) ([1]; stored 25° C./60% RH, 1st week): 78.4 °C
- Tg of mDSC (second glass transition temperature) ([1]; stored 25° C./60% RH, 1st week): 171.4 °C
- Tg of mDSC (first glass transition temperature) ([1]; stored 25° C./60% RH, 2nd week): 78.8 °C
- Tg of mDSC (first glass transition temperature) [1, 5]: 79.9 °C
- Tg of mDSC (first glass transition temperature) ([1]; stored 25° C./60% RH, 4th week): 78.9 °C
- Tg of mDSC (first glass transition temperature) ([1]; stored 40° C. Closed, 1st week): 79.1 °C
- Tg of mDSC (first glass transition temperature) ([1]; stored 40° C. Closed, 2nd week): 79.7 °C
- Tg of mDSC (second glass transition temperature) ([1]; stored 40° C. Closed, 2nd week): 170.4 °C
- Tg of mDSC (first glass transition temperature) [1, 6]: 83.9 °C
- Tg of mDSC (first glass transition temperature) ([1]; stored 40° C. Closed, 4th week): 81.1 °C
- Tg of mDSC (first glass transition temperature) ([1]; stored 40° C./75% RH, 1st week): 77.5 °C
- Tg of mDSC (second glass transition temperature) ([1]; stored 40° C./75% RH, 1st week): 105.9 °C
- Tg of mDSC (first glass transition temperature) ([1]; stored 40° C./75% RH, 2nd week): 77.8 °C
- Tg of mDSC (second glass transition temperature) ([1]; stored 40° C./75% RH, 2nd week): 174.5 °C
- Tg of mDSC (first glass transition temperature) ([1]; stored 40° C./75% RH, 3rd month): 77.7 °C
- Tg of mDSC (first glass transition temperature) ([1]; stored 40° C./75% RH, 4th week): 78.0 °C
- sharp endothermic peak on mDSC (related to melting point of the crystalline form) ([1]; stored 40° C./75% RH, third month): 153.4 °C
- Appearance ([2]; Initial): Light Yellow
- Appearance ([2]; stored 25° C. Closed, 1st week): Light
- Appearance ([2]; stored 25° C. Closed, 2nd week): Light
- Appearance [2, 4]: Light
- Appearance ([2]; stored 25° C. Closed, 4th week): Light
- Appearance ([2]; stored 25° C./60% RH, 1st week): Light
- Appearance ([2]; stored 25° C./60% RH, 2nd week): Light
- Appearance [2, 5]: Light
- Appearance ([2]; stored 25° C./60% RH, 4th week): Light
- Appearance ([2]; stored 40° C. Closed, 1st week): Light
- Appearance ([2]; stored 40° C. Closed, 2nd week): Light
- Appearance [2, 6]: Light
- Appearance ([2]; stored 40° C. Closed, 4th week): Light
- Appearance ([2]; stored 40° C./75% RH, 1st week): Light
- Appearance ([2]; stored 40° C./75% RH, 2nd week): Light
- Appearance ([2]; stored 40° C./75% RH, 3rd month, listed as Amorphous Apremilast): Darken
- Appearance ([2]; stored 40° C./75% RH, 3rd month, listed as apremilast): changed from light yellow to darkened yellow
- Appearance ([2]; stored 40° C./75% RH, 4th week): Light
- physical stability [3]: good physical stability
- physical stability ([3]; listed as Apremilast): stable for three months
- XRPD Pattern ([3]; Initial): Amorphous
- XRPD Pattern ([3]; stored 25° C. Closed, 1st week): Amorphous
- XRPD Pattern ([3]; stored 25° C. Closed, 2nd week): Amorphous
- XRPD Pattern [3, 4]: Amorphous
- XRPD Pattern ([3]; stored 25° C. Closed, 4th week): Amorphous
- XRPD Pattern ([3]; stored 25° C./60% RH, 1st week): Amorphous
- XRPD Pattern ([3]; stored 25° C./60% RH, 2nd week): Amorphous
- XRPD Pattern [3, 5]: Amorphous
- XRPD Pattern ([3]; stored 25° C./60% RH, 4th week): Amorphous
- XRPD Pattern ([3]; stored 40° C. Closed, 1st week): Amorphous
- XRPD Pattern ([3]; stored 40° C. Closed, 2nd week): Amorphous
- XRPD Pattern [3, 6]: Amorphous
- XRPD Pattern ([3]; stored 40° C. Closed, 4th week): Amorphous
- XRPD Pattern ([3]; stored 40° C./75% RH, 1st week): Amorphous
- XRPD Pattern ([3]; stored 40° C./75% RH, 2nd week): Amorphous
